Experimental data published in ChEMBL document CHEMBL4325896, “The potential role of tubeimosides in cancer prevention and treatment” (Eur J Med Chem, 2019).
Converted amounts (≈) assume the structure as drawn.

What was measured:
[1] = Toxicity in ip dosed ICR mouse; format: organism-based; conditions: in vivo
HUVEC [2] = assay: Antiproliferative activity against HUVEC after 72 hrs; format: functional, cell-based; conditions: Homo sapiens
[3] = Antiproliferative activity against human PGCL3 cells after 24 hrs by MTT assay; format: functional, cell-based
[4] = Antiproliferative activity against human PGCL3 cells after 72 hrs by MTT assay; format: functional, cell-based
HeLa [5] = assay: Antiproliferative activity against human HeLa cells after 24 hrs by MTT assay; format: functional, cell-based
HUVEC [6] = assay: Antiproliferative activity against HUVEC after 48 hrs; format: functional, cell-based; conditions: Homo sapiens
A549 = assay: Antiproliferative activity against human A549 cells after 72 hrs by MTS assay; format: functional, cell-based; conditions: A549, 72 h
[7] = Antiproliferative activity against human PGCL3 cells after 48 hrs by MTT assay; format: functional, cell-based
[8] = Half life in Sprague-Dawley rat at 50 mg/kg, po by HPLC-DAD-IT-TOF-MS analysis; format: ADME, organism-based; conditions: in vivo
[9] = AUC (0 to infinity) in Sprague-Dawley rat at 50 mg/kg, po by HPLC-DAD-IT-TOF-MS analysis; format: ADME, organism-based; set-up: dose 50 mg/kg, time infinity, route oral; conditions: in vivo
[10] = MRT (0 to 24 hrs) in Sprague-Dawley rat at 50 mg/kg, po by HPLC-DAD-IT-TOF-MS analysis; format: ADME, organism-based; conditions: in vivo
DU-145 = assay: Antiproliferative activity against human DU145 cells after 24 hrs by MTT assay; format: functional, cell-based; conditions: DU-145, 24 h
[11] = Tmax in Sprague-Dawley rat at 50 mg/kg, po by LC-MS analysis; format: ADME, organism-based; conditions: in vivo
[12] = Oral bioavailability in Sprague-Dawley rat at 50 mg/kg by LC-MS analysis; format: ADME, organism-based; conditions: in vivo
ECa-109 cell line [13] = assay: Antiproliferative activity against human EC109 cells after 24 hrs by MTT assay; format: functional, cell-based; conditions: ECa-109, 24 h
[14] = Antiproliferative activity against human A2780DDP cells after 48 hrs; format: functional, cell-based
[15] = Antiproliferative activity against human A2780DDP cells after 24 hrs; format: functional, cell-based
NCI-H460 [16] = assay: Antiproliferative activity against human NCI-H460 cells after 9 hrs by MTT assay; format: functional, cell-based; conditions: NCI-H460, 9 h
NCI-H460 [17] = assay: Antiproliferative activity against human NCI-H460 cells after 24 hrs by WST-1 assay; format: functional, cell-based; conditions: NCI-H460, 24 h
[18] = Tmax in Sprague-Dawley rat at 50 mg/kg, po by HPLC-DAD-IT-TOF-MS analysis; format: ADME, organism-based; conditions: in vivo
NCI-H1299 = assay: Antiproliferative activity against human NCI-H1299 cells after 48 hrs by CCK-8 assay; format: functional, cell-based; conditions: NCI-H1299, 48 h
HUVEC [19] = assay: Antiproliferative activity against HUVEC after 24 hrs; format: functional, cell-based; conditions: Homo sapiens
[20] = Elimination half life in ICR mouse at 5 mg/kg, iv by UPLC-MS/MS analysis; format: ADME, organism-based; conditions: in vivo, read-out: beta t1/2 (converted)
[21] = Volume of distribution at terminal phase in Sprague-Dawley rat at 5 mg/kg, iv by LC-MS analysis; format: ADME, organism-based; conditions: in vivo
[22] = Antiproliferative activity against human A2780DDP cells after 12 hrs; format: functional, cell-based
[23] = AUC (0 to 24 hrs) in Sprague-Dawley rat at 50 mg/kg, po by HPLC-DAD-IT-TOF-MS analysis; format: ADME, organism-based; set-up: dose 50 mg/kg, time < 24 hr, route oral; conditions: in vivo
[24] = Elimination half life in ICR mouse at 20 mg/kg, po by UPLC-MS/MS analysis; format: ADME, organism-based; conditions: in vivo, read-out: beta t1/2 (converted)
PC-9 = assay: Antiproliferative activity against human PC9 cells after 72 hrs by MTS assay; format: functional, cell-based; conditions: PC-9, 72 h
[25] = Cmax in Sprague-Dawley rat at 50 mg/kg, po by HPLC-DAD-IT-TOF-MS analysis; format: ADME, organism-based; set-up: dose 50 mg/kg, route oral; conditions: in vivo
ECa-109 cell line [26] = assay: Antiproliferative activity against human EC109 cells after 48 hrs by MTT assay; format: functional, cell-based; conditions: ECa-109, 48 h
HUVEC [27] = assay: Antimigratory activity against HUVEC at 20 umol/L after 24 hrs relative to control; format: functional, Homo sapiens
HepG2 [28] = assay: Antiproliferative activity against human HepG2 cells after 24 hrs by MTT assay; format: functional, cell-based; conditions: HepG2, 24 h
[29] = Cmax in Sprague-Dawley rat at 50 mg/kg, po by LC-MS analysis; format: ADME, organism-based; set-up: dose 50 mg/kg, route oral; conditions: in vivo
[30] = Elimination half life in Sprague-Dawley rat at 5 mg/kg, iv by LC-MS analysis; format: ADME, organism-based; conditions: in vivo
[31] = Oral bioavailability in ICR mouse at 20 mg/kg by UPLC-MS/MS analysis; format: ADME, organism-based; conditions: in vivo
SK-OV-3 = assay: Antiproliferative activity against human SKOV3 cells after 24 hrs by MTT assay; format: functional, cell-based; conditions: SK-OV-3, 24 h
[32] = MRT (0 to infinity) in Sprague-Dawley rat at 50 mg/kg, po by HPLC-DAD-IT-TOF-MS analysis; format: ADME, organism-based; conditions: in vivo
HeLa [33] = assay: Antiproliferative activity against human HeLa cells after 72 hrs by MTT assay; format: functional, cell-based
HeLa [34] = assay: Antiproliferative activity against human HeLa cells after 48 hrs by MTT assay; format: functional, cell-based
T-24 = assay: Antiproliferative activity against human T24 cells after 24 hrs by MTT assay; format: functional, cell-based; conditions: T-24, 24 h
PC-3 = assay: Antiproliferative activity against human PC3 cells after 24 hrs by MTT assay; format: functional, cell-based; conditions: PC-3, 24 h
HeLa [35] = assay: Cytotoxicity against human HeLa cells after 24 hrs by MTT assay; format: functional, cell-based
[36] = Antiproliferative activity against mouse eEND.2 cells after 24 hrs by WST-1 assay; format: cell-based
JEG-3 = assay: Antiproliferative activity against human JEG3 cells after 24 hrs by MTT assay; format: functional, cell-based; conditions: JEG-3, 24 h
HepG2 [37] = assay: Antiproliferative activity against human HepG2 cells; format: functional, cell-based

C[C@@H]1O[C@H]2O[C@H]3[C@@H](OC[C@H](O)[C@@H]3O)OC(=O)[C@]34CCC(C)(C)C[C@H]3C3=CC[C@@H]5[C@@]6(C)C[C@H](O)[C@H](O[C@@H]7O[C@H](CO)[C@@H](O)[C@H](O)[C@H]7O[C@@H]7O[C@H](COC(=O)C[C@](C)(O)CC(=O)O[C@@H]1[C@@H](O[C@@H]1OC[C@@H](O)[C@H](O)[C@H]1O)[C@H]2O)[C@@H](O)[C@H](O)[C@H]7O)[C@@](C)(CO)[C@@H]6CC[C@@]5(C)[C@]3(C)C[C@H]4O
LD50 [1]: 15 mg/kg

C[C@@H]1O[C@H]2O[C@H]3[C@@H](OC[C@H](O)[C@@H]3O)OC(=O)[C@]34CCC(C)(C)C[C@H]3C3=CC[C@@H]5[C@@]6(C)C[C@H](O)[C@H](O[C@@H]7O[C@H](CO)[C@@H](O)[C@H](O)[C@H]7O[C@@H]7OC[C@H](OC(=O)C[C@](C)(O)CC(=O)O[C@@H]1[C@@H](O[C@@H]1OC[C@@H](O)[C@H](O)[C@H]1O)[C@H]2O)[C@H](O)[C@H]7O)[C@@](C)(CO)[C@@H]6CC[C@@]5(C)[C@]3(C)CC4
IC50 (HUVEC [2]): 17.9 µM
IC50 [3]: 15.7 µM
IC50 [4]: 13.3 µM
IC50 (HeLa [5]): 34.8 µM
IC50 (HUVEC [6]): 21.4 µM
IC50 (A549): 12.3 µM
IC50 [7]: 14.2 µM
t1/2 [8]: 4.6 h
AUC [9]: 9900 ng·h/mL
MRT last [10]: 7.02 h
IC50 (DU-145): 10 µM
Tmax [11]: 2.75 h
bioavailability [12]: 0.23%
IC50 (ECa-109 cell line [13]): 45 µM
IC50 [14]: 12 µM
IC50 [15]: 6 µM
IC50 (NCI-H460 [16]): 20 µM
IC50 (NCI-H460 [17]): 23.3 µM
Tmax [18]: 2.85 h
IC50 (NCI-H1299): 10 µM
IC50 (HUVEC [19]): 24.2 µM
half-life [20]: 6.8 h
Vbeta [21]: 0.106 L/kg
IC50 [22]: 3 µM
AUC(0-t) at 24 h [23]: 8800 ng·h/mL
half-life [24]: 2.3 h
IC50 (PC-9): 10.2 µM
Cmax [25]: 1342 ng/mL
IC50 (ECa-109 cell line [26]): 35 µM
Activity (HUVEC [27]): 58.4%
IC50 (HepG2 [28]): 15.5 to 20 µM
LD50 [1]: 18.7 mg/kg
Cmax [29]: 675 ng/mL
beta t1/2 [30]: 6.7 h
bioavailability [31]: 1%
IC50 (SK-OV-3): 16 µM
MRT inf [32]: 9.16 h
IC50 (HeLa [33]): 17.1 µM
IC50 (HeLa [34]): 27.1 µM
IC50 (T-24): 20 µM
IC50 (PC-3): 20 µM
IC50 (HeLa [35]): 25 µM
IC50 [36]: 12 µM
IC50 (JEG-3): 8.5 µM

C[C@@H]1O[C@H]2O[C@H]3[C@@H](OC[C@H](O)[C@@H]3O)OC(=O)[C@]34CCC(C)(C)C[C@H]3C3=CC[C@@H]5[C@@]6(C)C[C@H](O)[C@H](O[C@@H]7O[C@H](CO)[C@@H](O)[C@H](O)[C@H]7O[C@@H]7OC[C@H](OC(=O)C[C@](C)(O)CC(=O)O[C@@H]1[C@@H](O[C@@H]1OC[C@@H](O)[C@H](O)[C@H]1O)[C@H]2O)[C@H](O)[C@H]7O)[C@@](C)(CO)[C@@H]6CC[C@@]5(C)[C@]3(C)C[C@H]4O
LD50 [1]: 21 mg/kg
IC50 (HepG2 [37]): 4.05 µg/mL (≈ 3.03 µM)
